This is an account of results in patent US9611251B2, “Substituted piperidine compounds and their use as orexin receptor modulators” (Janssen Pharmaceutica NV, priority 2013, dated 2017).

Counter-ions that a name gives are not always drawn. Like-named read-outs stand apart in the source and are kept apart here.

One assay deals with rat orexin 1 receptor (Rattus norvegicus, UniProt P56718). The assay can be described thus: Rat orexin 1 receptor radioligand binding. As for the experimental part:
(§1) Data are analyzed using pc-Sandy macro and graphed on Graphpad Prism 5. For analysis, each concentration point is averaged from triplicate values and the averaged values are plotted on Graphpad Prism. The IC50 was determined by applying the following equation (GraphPad Prism 5.0, SanDiego) for one site competition where X=log (concentration) and Y=specific binding. Top denotes the total [^3H]-(1-(5-(2-fluoro-phenyl)-2-methyl-thiazol-4-yl)-1-((S)-2-(5-phenyl-(1,3,4)oxadiazol-2-ylmethyl)-pyrrolidin-1-yl)-methanone) binding, bottom denotes the nonspecific [^3H]-(1-(5-(2-fluoro-phenyl)-2-methyl-thiazol-4-yl)-1-((S)-2-(5-phenyl-(1,3,4)oxadiazol-2-ylmethyl)-pyrrolidin-1-yl)-methanone) binding. Graphpad Prism calculates Ki value from IC50 and the pre-determined Kd values for [^3H]-(1-(5-(2-fluoro-phenyl)-2-methyl-thiazol-4-yl)-1-((S)-2-(5-phenyl-(1,3,4)oxadiazol-2-ylmethyl)-pyrrolidin-1-yl)-methanone) and [3H]-EMPA. The Ki for each compound is then uploaded into 3DX. Each run comprises individual compounds in triplicate.
(§2) Rat and Human Orexin 1 Receptor Radioligand Binding Studies
After centrifugation (2K×G, 5 min at 4° C.), the supernatant was aspirated and the pellets frozen and stored at −80° C. […] Each cell pellet from a 15 cm plate was resuspended in 10 mL, stored on ice, and homogenized for 45 sec prior to addition to the reactions. Competition binding experiments in 96 well polypropylene plates were performed using [^3H]-(1-(5-(2-fluoro-phenyl)-2-methyl-thiazol-4-yl)-1-((S)-2-(5-phenyl-(1,3,4)oxadiazol-2-ylmethyl)-pyrrolidin-1-yl)-methanone) (Moraveck Corporation, specific activity=35.3 Ci/mmol), diluted to a 10 nM concentration in PBS (4 nM final). […] The final concentration of DMSO in the reactions is equal to or less than 0.1%. Total and nonspecific binding was determined in the absence and presence of 10 μM almorexant. The total volume of each reaction is 200 μL (20 μL of diluted compounds, 80 μL of [^3H]-(1-(5-(2-fluoro-phenyl)-2-methyl-thiazol-4-yl)-1-((S)-2-(5-phenyl-(1,3,4)oxadiazol-2-ylmethyl)-pyrrolidin-1-yl)-methanone) diluted in PBS and 100 μL of the cell suspension). […] The plates were washed 3 times by aspirating 30 ml PBS through the plates. Plates were dried in 55° C. oven for 60 min, scintillation fluid was added, and the radioactivity was counted on a Topcount (Packard).

For another assay, the target named is human orexin 1 receptor (Homo sapiens, UniProt O43613). Briefly: Human orexin 1 receptor radioligand binding. Here is the method: The in vitro affinity of the compounds of the invention for the rat/human orexin 1 and human orexin 2 receptors was determined by competitive radioligand binding using [^3H](1-(5-(2-fluoro-phenyl)-2-methyl-thiazol-4-yl)-1-((S)-2-(5-phenyl-(1,3,4)oxadiazol-2-ylmethyl)-pyrrolidin-1-yl)-methanone) (Langmead et al., 2004) and [^3H]EMPA (n-ethyl-2[96-methoxypyridin-3-yl)-(toluene-2-sulfonyl)-amino]-N-pyridin-3-ylmethyl acetamide), respectively (Langmead et al., 2004, British Journal of Pharmacology 141:340-346; Malherbe et al., 2004, British Journal of Pharmacology 156:1326-41).
as §1, §2
Human Embryonic Kidney 293 cells (HEK293) stably expressing rat orexin 1 receptor (Genebank accession number NM_001525) or Chinese ovary cells (CHO) stably expressing human orexin 1 receptor (Genebank accession number NM_001526) were grown to confluency in DMEM (Hyclone, cat #SH30022), 10% FBS, 1×Pen/Strep, 1× sodium pyruvate, 10 mM HEPES, 600 μg/mL G418 and DMEM/F12 (Gibco, Cat #11039), 10% FBS, 1×Pen/Strep, 600 μg/mL G418 media, respectively on 150 cm^2 tissue culture plates, washed with 5 mM EDTA in PBS (HyClone Dulbecco's Phosphate Buffered Saline 1× with Calcium and Magnesium, Cat #SH30264.01, hereafter referred to simply as PBS) and scraped into 50 ml tubes. After centrifugation (2K×G, 5 min at 4° C.), the supernatant was aspirated and the pellets frozen and stored at −80° C. Cells were resuspended in PBS in the presence of 1 tablet of protease inhibitor cocktail (Roche, Cat. #11836145001) per 50 mL. Each cell pellet from a 15 cm plate was resuspended in 10 mL, stored on ice, and homogenized for 45 sec prior to addition to the reactions. Competition binding experiments in 96 well polypropylene plates were performed using [^3H]-(1-(5-(2-fluoro-phenyl)-2-methyl-thiazol-4-yl)-1-((S)-2-(5-phenyl-(1,3,4)oxadiazol-2-ylmethyl)-pyrrolidin-1-yl)-methanone) (Moraveck Corporation, specific activity=35.3 Ci/mmol), diluted to a 10 nM concentration in PBS (4 nM final). […] The final concentration of DMSO in the reactions is equal to or less than 0.1%. Total and nonspecific binding was determined in the absence and presence of 10 μM almorexant. The total volume of each reaction is 200 μL (20 μL of diluted compounds, 80 μL of [^3H]-(1-(5-(2-fluoro-phenyl)-2-methyl-thiazol-4-yl)-1-((S)-2-(5-phenyl-(1,3,4)oxadiazol-2-ylmethyl)-pyrrolidin-1-yl)-methanone) diluted in PBS and 100 μL of the cell suspension). Reactions were run for 60 min at room temperature and terminated by filtration through GF/C filter plates (PerkinElmer, Cat. #6005174) presoaked in 0.3% polyethylenimine using the cell harvester (PerkinElmer Filtermate). The plates were washed 3 times by aspirating 30 ml PBS through the plates. Plates were dried in 55° C. oven for 60 min, scintillation fluid was added, and the radioactivity was counted on a Topcount (Packard).

A further assay concerns the target human orexin 2 receptor (Homo sapiens (Human), UniProt O43614). Briefly: Human orexin 2 receptor radioligand binding ([3H]-EMPA). Particulars: averages of 2-20 runs, read-out: hOX2 Ki. As for the experimental part:
as §1
Human Orexin 2 Receptor Radioligand Binding Studies
HEK293 stably expressing human orexin 2 receptor (Genebank accession number NM_001526) were grown to confluency in DMEM (Hyclone, cat #SH30022), 10% FBS, 1×Pen/Strep, 1× NaPyruvate, 10 mM HEPES, 600 ug/ml G418 media on 150 cm^2 tissue culture plates, washed with 5 mM EDTA in PBS (HyClone Dulbecco's Phosphate Buffered Saline 1× with Calcium and Magnesium, Cat #SH30264.01, hereafter referred to simply as PBS) and scraped into 50 ml tubes. After centrifugation (2K×G, 5 min at 4° C.), the supernatant was aspirated and the pellets frozen and stored at −80° C. […] Each cell pellet from a 15 cm plate was resuspended in 10 mL, stored on ice, and homogenized for 45 sec just prior to addition to the reactions. Competition binding experiments in 96 well polypropylene plates were performed using [^3H]-EMPA (Moraveck Corporation, specific activity=29.6 Ci/mmol), diluted to a 5 nM concentration in PBS (2 nM final concentration). […] The final concentration of DMSO in the reactions is equal to or less than 0.1%. Total and nonspecific binding was determined in the absence and presence of 10 μM almorexant. The total volume of each reaction is 200 μL (20 μL of diluted compounds, 80 μL of [^3H]-EMPA diluted in PBS and 100 μL of the cell suspension). […] The plates were washed 3 times by aspirating 30 ml PBS through the plates. Plates were dried in 55° C. oven for 60 min, scintillation fluid was added, and the radioactivity was counted on a Topcount (Packard).

Where [1] appears, read: rat orexin 1 receptor radioligand binding, averages of 2-20 runs, read-out: rOX1 Ki.

Sequence of human orexin 2 receptor (O43614 whole entry): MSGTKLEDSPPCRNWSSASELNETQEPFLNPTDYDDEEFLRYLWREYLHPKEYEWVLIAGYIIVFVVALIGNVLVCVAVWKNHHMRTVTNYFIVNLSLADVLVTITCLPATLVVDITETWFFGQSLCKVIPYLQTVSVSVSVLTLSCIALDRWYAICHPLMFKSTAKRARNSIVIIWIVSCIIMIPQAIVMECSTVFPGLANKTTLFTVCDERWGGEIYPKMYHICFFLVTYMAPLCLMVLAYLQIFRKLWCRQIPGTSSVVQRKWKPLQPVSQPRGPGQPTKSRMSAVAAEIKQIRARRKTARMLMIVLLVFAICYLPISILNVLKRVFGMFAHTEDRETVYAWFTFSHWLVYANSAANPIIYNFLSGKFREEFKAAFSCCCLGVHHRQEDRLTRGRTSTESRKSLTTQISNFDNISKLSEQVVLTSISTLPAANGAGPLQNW

For orientation: Ki means the equilibrium dissociation constant of an inhibitor or competing ligand from its target. For `Cc1ccc(-c2ncco2)c(C(=O)N2CCC[C@@H](Nc3ccc(C(F)(F)F)cn3)[C@@H]2C)n1` (racemic) [Example 22, (±)-trans-(2-methyl-3-((5-(trifluoromethyl)pyridin-2-yl)amino)piperidin-1-yl)(6-methyl-3-(oxazol-2-yl)pyridin-2-yl)methanone hydrochloride], the values for the Ki on rat orexin 1 receptor and at human orexin 1 receptor were 36 nM and 21 nM, respectively.
Regarding `Cc1noc(-c2cc(F)ccc2C(=O)N2CCC[C@@H](Nc3ncc(C(F)(F)F)cn3)[C@@H]2C)n1` (relative stereo) [Example 197, (4-fluoro-2-(3-methyl-1,2,4-oxadiazol-5-yl)phenyl)((2S*,3R*)-2-methyl-3-((5-(trifluoromethyl)pyrimidin-2-yl)amino)piperidin-1-yl)methanone], the Ki was determined as 332 nM on rat orexin 1 receptor (setting [1]) and 6600 nM on human orexin 2 receptor.
On the same counts, the results for `COc1ccc(C(=O)N2CCC[C@@H](Nc3ncc(C(F)(F)F)cn3)[C@@H]2C)c(Cl)n1` (relative stereo) [Example 201, (2-chloro-6-methoxypyridin-3-yl)((2S*,3R*)-2-methyl-3-((5-(trifluoromethyl)pyrimidin-2-yl)amino)piperidin-1-yl)methanone] are greater than 10000 nM and greater than 10000 nM.
On the same counts, the results for `C[C@H]1[C@H](Nc2ncc(C(F)(F)F)cn2)CCCN1C(=O)c1ccc(F)cc1-c1ncco1` (relative stereo) [Example 205, (4-fluoro-2-(oxazol-2-yl)phenyl)((2S*,3R*)-2-methyl-3-((5-(trifluoromethyl)pyrimidin-2-yl)amino)piperidin-1-yl)methanone] are 411 nM and 5800 nM.
On the same counts, the results for `Cc1cnc(C(=O)N2CCC[C@@H](Nc3nc4ccccc4o3)[C@@H]2C)c(-n2nccn2)c1` [Example 73, ((2S,3R)-3-(benzo[d]oxazol-2-ylamino)-2-methylpiperidin-1-yl)(5-methyl-3-(2H-1,2,3-triazol-2-yl)pyridin-2-yl)methanone] are 8 nM and 2270 nM.
In the case of `C[C@H]1[C@H](Oc2cnc(C(F)(F)F)cn2)CCCN1C(=O)c1cccnc1-n1nccn1` [Example 148, (2-(2H-1,2,3-triazol-2-yl)pyridin-3-yl)((2S,3R)-2-methyl-3-((5-(trifluoromethyl)pyrazin-2-yl)oxy)piperidin-1-yl)methanone], the Ki on rat orexin 1 receptor (setting [1]) is 3400 nM; on human orexin 2 receptor, greater than 10000 nM.
On the same counts, the results for `C[C@H]1[C@H](Oc2ccc(C(F)(F)F)cn2)CCCN1C(=O)c1cccnc1-n1nccn1` [Example 153, (2-(2H-1,2,3-triazol-2-yl)pyridin-3-yl)((2S,3R)-2-methyl-3-((5-(trifluoromethyl)pyridin-2-yl)oxy)piperidin-1-yl)methanone] are 353 nM and greater than 10000 nM.
For the compound `Cc1cnc(-n2nccn2)c(C(=O)N2CCC[C@@H](Oc3ncc(Cl)cn3)[C@@H]2C)c1` [Example 162, ((2S,3R)-3-((5-chloropyrimidin-2-yl)oxy)-2-methylpiperidin-1-yl)(5-methyl-2-(2H-1,2,3-triazol-2-yl)pyridin-3-yl)methanone], the results for the Ki at rat orexin 1 receptor (setting [1]) and at human orexin 2 receptor were 621 nM and greater than 10000 nM, respectively.
On the same counts, the results for `COc1ccc(C(=O)N2CCC[C@@H](Oc3cnc(C(F)(F)F)cn3)[C@@H]2C)c(-n2nccn2)c1` [Example 172, (4-methoxy-2-(2H-1,2,3-triazol-2-yl)phenyl)((2S,3R)-2-methyl-3-((5-(trifluoromethyl)pyrazin-2-yl)oxy)piperidin-1-yl)methanone] are 447 nM and greater than 10000 nM.
`C[C@H]1[C@H](Oc2cnc(C(F)(F)F)cn2)CCCN1C(=O)c1nccnc1-c1ccccc1` [Example 173, ((2S,3R)-2-methyl-3-((5-(trifluoromethyl)pyrazin-2-yl)oxy)piperidin-1-yl)(3-phenylpyrazin-2-yl)methanone]: the Ki on rat orexin 1 receptor (setting [1]) is 423 nM; at human orexin 2 receptor it was 8200 nM.
On the same counts, the results for `COc1ccc(C(=O)N2CCC[C@@H](Oc3ncc(C(F)(F)F)cn3)[C@@H]2C)c(-n2nccn2)c1` [Example 174, (4-methoxy-2-(2H-1,2,3-triazol-2-yl)phenyl)((2S,3R)-2-methyl-3-((5-(trifluoromethyl)pyrimidin-2-yl)oxy)piperidin-1-yl)methanone] are 504 nM and greater than 10000 nM.
On the same counts, the results for `Cc1cnc(-n2nccn2)c(C(=O)N2CCC[C@@H](Oc3ncc(C(F)(F)F)cn3)[C@@H]2C)c1` [Example 176, (5-methyl-2-(2H-1,2,3-triazol-2-yl)pyridin-3-yl)((2S,3R)-2-methyl-3-((5-(trifluoromethyl)pyrimidin-2-yl)oxy)piperidin-1-yl)methanone] are 374 nM and greater than 10000 nM.
On the same counts, the results for `C[C@H]1[C@H](Oc2ncc(C(F)(F)F)cn2)CCCN1C(=O)c1nccnc1-c1ccccc1` [Example 178, ((2S,3R)-2-methyl-3-((5-(trifluoromethyl)pyrimidin-2-yl)oxy)piperidin-1-yl)(3-phenylpyrazin-2-yl)methanone] are 679 nM and greater than 10000 nM.
